From BindingDB's records for doi:10.1016/j.bmc.2017.03.072 (Ewha Womans University, 2017)

Target: Interleukin-6 (Human, UniProt P05231)
Test: ChEBML_1684684
Procedure: Inhibition of IL-6 signaling pathway in human HepG2 cells transfected with p-STAT3-Luc assessed as reduction in IL-6 induced STAT3 phosphorylation preincubated for 1 hr followed by IL-6 induction measured after 10 mins by immunoblot analysis

Sequence of Interleukin-6 (P05231 whole entry): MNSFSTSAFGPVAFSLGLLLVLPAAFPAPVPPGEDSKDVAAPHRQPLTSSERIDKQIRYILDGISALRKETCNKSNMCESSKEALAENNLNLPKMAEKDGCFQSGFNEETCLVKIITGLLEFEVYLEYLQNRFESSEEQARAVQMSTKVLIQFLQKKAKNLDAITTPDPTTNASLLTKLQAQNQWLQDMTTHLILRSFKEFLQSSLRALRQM

IC50 [µM] | Structure (SMILES)
5.8 | CCc1ccc(Nc2nc3cc(NC(=O)c4ccccc4)ccc3o2)cc1
20.7 | C=C1C(C)=C(CCCC)C(=O)[C@]1(C)CN1c2ccccc2[C@]2(O)CCO[C@H]12
18.9 | CCc1ccc(Nc2nc3cc(N)ccc3o2)cc1
